Assay results reported in ChEMBL document CHEMBL5036383, “Azapodophyllotoxin Causes Lymphoma and Kidney Cancer Regression by Disrupting Tubulin and Monoglycerols” (2022).
Calls of active or inactive are those of the source. No cut-off for these calls is given here.

How the values were obtained:
A498 [1] = test: Anticancer activity against human A498 cells assessed as reduction of cell viability at 70 nM relative to control; assay type: functional
[2] = Anticancer activity against human P493-6 cells assessed as reduction of cell viability at 280 nM relative to control; assay type: functional
CCRF-CEM [3] = test: Anticancer activity against human CCRF-CEM cells assessed as reduction of cell viability at 280 nM relative to control; assay type: functional
[4] = Anticancer activity against human 6780 cell cells assessed as reduction of cell viability at 70 nM relative to control; assay type: functional
A498 [5] = test: Antitumour activity against human A498 cells xenografted in mouse assessed as reduction of tumour weight, IT measured after 1 week; assay type: functional, cell-based; details: time 1.0 weeks
CCRF-CEM [6] = test: Anticancer activity against human CCRF-CEM cells assessed as reduction of cell viability at 140 nM relative to control; assay type: functional
Tubulin (Homo sapiens) = Tubulin (Homo sapiens) (UniProt P68371+Q9H4B7+P0DPH7+P68366+Q13509+Q71U36+P04350+Q3ZCM7+P07437+P68363+Q9BQE3+Q6PEY2+Q13885+Q9BVA1+Q9BUF5); test: Inhibition of tubulin polymerization (unknown origin); assay type: protein-complex assay
CCRF-CEM [7] = test: Inhibition of lipid metabolism in human CCRF-CEM cells assessed as increase in mono glycerol level measured after 1 week treatment by DESI-MSI; assay type: functional, cell-based; details: time 1.0 weeks
Mus musculus [8] = test: Antitubulin activity against human CCRF-CEM cells xenografted in IT dosed mouse assessed as decrease in tubulin level treated for 1 week by nano-immuno assay; assay type: functional, organism-based; details: time 1.0 weeks
Mus musculus [9] = test: Antitubulin activity against human CCRF-CEM cells xenografted in IT dosed mouse assessed as fold decrease in tubulin fine needle aspirates treated for 1 week by nano-immuno assay relative to control; assay type: functional; details: time 1 weeks
[10] = Anticancer activity against transgenic mouse RCC E28 cells assessed as reduction of cell proliferation at 70 nM for 48 hrs relative to control; assay type: functional; parameters: scale not given: the % may be the effect or the level left
KOPTK1 [11] = test: Anticancer activity against human KOPT-K1 cells assessed as reduction of cell viability at 280 nM relative to control; assay type: functional
KOPTK1 [12] = test: Anticancer activity against human KOPT-K1 cells assessed as reduction of cell viability at 70 nM relative to control; assay type: functional
KOPTK1 [13] = test: Anticancer activity against human KOPT-K1 cells assessed as reduction of cell viability at 140 nM relative to control; assay type: functional
[14] = Anticancer activity against human 6780 cell cells assessed as reduction of cell viability at 280 nM relative to control; assay type: functional
[15] = Anticancer activity against human 6780 cell cells assessed as reduction of cell viability at 140 nM relative to control; assay type: functional
[16] = Anticancer activity against human P493-6 cells assessed as reduction of cell viability at 70 nM relative to control; assay type: functional
[17] = Anticancer activity against human P493-6 cells assessed as reduction of cell viability at 140 nM relative to control; assay type: functional
CCRF-CEM [18] = test: Anticancer activity against human CCRF-CEM cells assessed as reduction of cell viability at 70 nM relative to control; assay type: functional
CCRF-CEM [19] = test: Antitumour activity against human CCRF-CEM xenografted in mouse assessed as reduction of tumour volume, IT measured after 1 week; assay type: functional; details: time 1.0 weeks
[20] = Anticancer activity against human DND41 cells assessed as reduction of cell viability at 70 nM relative to control; assay type: functional
[21] = Anticancer activity against transgenic mouse RCC E28 cells assessed as reduction of cell proliferation at 140 nM for 48 hrs relative to 70 uM treatment; assay type: functional

SMILES: O=C1OCC2=C1C(c1cccc(C(F)(F)F)c1)c1cc3c(cc1N2CCO)OCCO3 (stereo not drawn)
- Activity (A498 [1]): 80%

SMILES: O=C1OCC2=C1C(c1cccc(Br)c1)c1cc3c(cc1N2CCO)OCCO3 (stereo not drawn)
- Activity (A498 [1]): 87%

SMILES: O=C1OCC2=C1C(c1cccc(C(F)(F)F)c1)c1cc3c(cc1N2CCO)CCC3 (stereo not drawn)
- Activity (A498 [1]): 83%

SMILES: O=C1OCC2=C1C(c1cccc(Br)c1)c1cc3c(cc1N2CCO)CCC3 (stereo not drawn)
- Activity (A498 [1]): 90%

SMILES: O=C1OCC2=C1C(c1ccccc1)c1cc3c(cc1N2CCO)OCO3 (stereo not drawn)
- Activity (A498 [1]): 30%

SMILES: O=C1OCC2=C1C(c1ccccc1)c1cc3c(cc1N2CCO)OCCO3 (stereo not drawn)
- Activity (A498 [1]): 30%

SMILES: COc1cc(C2C3=C(COC3=O)N(CCO)c3cc4c(cc32)CCC4)cc(OC)c1OC (stereo not drawn)
- Activity [2]: 98%
- Activity (CCRF-CEM [3]): 96%
- Activity [4]: 90%
- Activity (A498 [5]): Active
- Activity (CCRF-CEM [6]): 92%
- inhibition (Tubulin (Homo sapiens)): Active
- inhibition (CCRF-CEM [7]): Active
- Activity (Mus musculus [8]): Active
- fold change (FC) (Mus musculus [9]): 2
- Activity (A498 [1]): 95%
- Activity [10]: 90%
- Activity (KOPTK1 [11]): 89%
- Activity (KOPTK1 [12]): 85%
- Activity (KOPTK1 [13]): 87%
- Activity [14]: 96%
- Activity [15]: 94%
- Activity [16]: 85%
- Activity [17]: 90%
- Activity (CCRF-CEM [18]): 90%
- Activity (CCRF-CEM [19]): Active
- Activity [20]: 95%
- fold change (FC) [21]: 2
